Assay results reported in patent US9902728B2, “Pyrrolo and pyrazolopyrimidines as ubiquitin-specific protease 7 inhibitors” (Forma Therapeutics, Inc., priority 2014, dated 2018).

Biological target: T1, USP7 (Homo sapiens, UniProt Q93009)
T1 construct: USP7, construct USP7 (208-1102) 6*His, Viva Biotech; 6xHis (C); purchased Viva Biotech
Test: USP7 Assay A (Ubitquin-Rhodamine 110 Assay)
Format: biochemical
Conditions: USP7 assay A and B (table does not say which assay per compound); read-out: USP7_IC50
Description: Each assay was performed in a final volume of 15 μL in assay buffer containing 20 mM Tris-HCl (pH 8.0, (1M Tris-HCl, pH 8.0 solution; Corning 46-031-CM)), 1 mM GSH (L-Glutathione reduced; Sigma #G4251), 0.03% BGG ([…], Sigma, #G7516-25G), and 0.01% Triton X-100 (Sigma, #T9284-10L). […] 5 μL of 2× enzyme was added to assay plates (pre-stamped with compound) preincubated with USP7 for 30 minutes and then 5 μL of 2×Ub-Rh110 was added to assay plates. […] Fluorescence was read on the Envision (Excitation at 485 nm and Emission at 535 nm; Perkin Elmer) or on the PheraSTAR (Excitation at 485 nm and Emission at 535 nm; BMG Labtech).
Data from USP7 Assays A and B were reported as percent inhibition (inh) compared with control wells based on the following equation: % inh=1−((FLU−AveLow)/(AveHigh−AveLow)) where FLU=measured Fluorescence (See Tables 6-10). AveLow=average Fluorescence of no enzyme control (n=16). AveHigh=average Fluorescence of DMSO control (n=16). […] Data is fitted using the Levenburg Marquardt algorithm.

T1 sequence (Q93009 208-1102): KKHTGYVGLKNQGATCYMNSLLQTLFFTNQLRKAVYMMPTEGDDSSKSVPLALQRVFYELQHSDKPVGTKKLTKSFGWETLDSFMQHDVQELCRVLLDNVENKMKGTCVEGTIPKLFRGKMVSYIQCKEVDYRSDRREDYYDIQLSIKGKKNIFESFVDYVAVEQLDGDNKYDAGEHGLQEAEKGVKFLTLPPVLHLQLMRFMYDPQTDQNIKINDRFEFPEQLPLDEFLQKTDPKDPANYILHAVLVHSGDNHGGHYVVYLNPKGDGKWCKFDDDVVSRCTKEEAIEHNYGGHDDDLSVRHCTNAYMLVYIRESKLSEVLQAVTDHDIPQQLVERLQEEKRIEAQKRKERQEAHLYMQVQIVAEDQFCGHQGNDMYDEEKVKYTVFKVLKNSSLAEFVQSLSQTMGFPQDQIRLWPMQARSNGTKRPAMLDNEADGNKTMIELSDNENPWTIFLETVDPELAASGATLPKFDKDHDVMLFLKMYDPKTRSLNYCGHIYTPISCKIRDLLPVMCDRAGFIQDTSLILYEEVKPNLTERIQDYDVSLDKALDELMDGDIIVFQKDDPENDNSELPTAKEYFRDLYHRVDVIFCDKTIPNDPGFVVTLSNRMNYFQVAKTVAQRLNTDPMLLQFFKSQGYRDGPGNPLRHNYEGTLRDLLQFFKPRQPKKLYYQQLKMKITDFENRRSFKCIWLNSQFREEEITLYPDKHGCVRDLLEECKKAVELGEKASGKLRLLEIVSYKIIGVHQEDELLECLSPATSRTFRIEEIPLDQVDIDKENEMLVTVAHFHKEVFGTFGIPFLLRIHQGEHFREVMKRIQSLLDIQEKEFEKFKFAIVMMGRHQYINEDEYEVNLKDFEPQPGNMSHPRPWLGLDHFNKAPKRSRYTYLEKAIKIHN

Structure (SMILES)	IC50 [nM]
Cc1nc(C)c(C(=O)N2CCC(O)(Cn3cnc4c(cnn4-c4ccccc4)c3=O)CC2)s1 [Compound I-230]	1000 to 10000
Nc1cc(Cl)ccc1C(=O)N1CCC(O)(Cn2cnc3c(cnn3-c3ccccc3)c2=O)CC1 [Compound I-232]	200 to 1000
Nc1ccc(Cl)cc1C(=O)N1CCC(O)(Cn2cnc3c(cnn3-c3ccccc3)c2=O)CC1 [Compound I-233]	200 to 1000
O=C(c1cnc(-c2ccccc2)o1)N1CCC(O)(Cn2cnc3c(cnn3-c3ccccc3)c2=O)CC1 [Compound I-252]	200 to 1000
C#CC(=O)NC1CC(C(=O)N2CCC(O)(Cn3cnc4c(cnn4-c4ccccc4)c3=O)CC2)C1 (stereo not shown) [Compound I-259]	1000 to 10000
O=C(C1CC1)N1CCC(O)(Cn2cnc3c(cnn3-c3ccc(Cl)cc3Cl)c2=O)CC1 [Compound I-264]	> 10000
O=C(c1ccccc1)N1CCC(O)(Cn2cnc3c(cnn3-c3ccc(F)cc3)c2=O)CC1 [Compound I-266]	1000 to 10000
COc1ccc(C(=O)N2CCC(O)(Cn3cnc4c(cnn4-c4ccc(F)cc4)c3=O)CC2)cc1 [Compound I-267]	200 to 1000
O=C(c1ccc(F)cc1)N1CCC(O)(Cn2cnc3c(cnn3-c3ccc(F)cc3)c2=O)CC1 [Compound I-268]	1000 to 10000
CC1(C(=O)N2CCC(O)(Cn3cnc4c(cnn4-c4ccccc4)c3=O)CC2)CC1 [Compound I-271]	1000 to 10000
O=C(O)c1ccc(C(=O)N2CCC(O)(Cn3cnc4c(cnn4-c4ccccc4)c3=O)CC2)cc1 [Compound I-272]	1000 to 10000
O=C(c1ccc(OC(F)F)cc1)N1CCC(O)(Cn2cnc3c(cnn3-c3ccccc3)c2=O)CC1 [Compound I-274]	1000 to 10000
O=C(C1CC1)N1CCC(O)(Cn2cnc3c(cnn3-c3ccc(-c4ccccc4)cc3)c2=O)CC1 [Compound I-276]	1000 to 10000
O=C(N1CCC(O)(Cn2cnc3c(cnn3-c3ccccc3)c2=O)CC1)C1(C(F)(F)F)CC1 [Compound I-277]	1000 to 10000
CN(C)C(=O)N1CCC(O)(Cn2cnc3c(cnn3-c3ccc(F)cc3)c2=O)CC1 [Compound I-279]	1000 to 10000
O=C(c1ccc(Cl)cc1)N1CCC(O)(Cn2cnc3c(cnn3-c3ccccc3)c2=O)CC1 [Compound I-280]	1000 to 10000
O=C(c1ccccc1)N1CCC(O)(Cn2cnc3c(cnn3-c3cccc(CO)c3)c2=O)CC1 [Compound I-281]	1000 to 10000
O=C(c1ccc2c(Cl)ccnc2c1)N1CCC(O)(Cn2cnc3c(cnn3-c3ccccc3)c2=O)CC1 [Compound I-282]	1000 to 10000
O=C(c1ccc(OC2CC2)cc1)N1CCC(O)(Cn2cnc3c(cnn3-c3ccc(F)cc3)c2=O)CC1 [Compound I-283]	1000 to 10000
CNC(=O)N1CCC(O)(Cn2cnc3c(cnn3-c3ccc(F)cc3)c2=O)CC1 [Compound I-284, 4-{[1-(4-fluorophenyl)-4-oxo-1H,4H,5H-pyrazolo[3,4-d]pyrimidin-5-yl]methyl}-4-hydroxy-N-methylpiperidine-1-carboxamide]	1000 to 10000
O=C(c1ccnc(Cl)c1)N1CCC(O)(Cn2cnc3c(cnn3-c3ccccc3)c2=O)CC1 [Compound I-287]	1000 to 10000

Structure (SMILES)	IC50 [nM]
O=C(N1CCC(O)(Cn2cnc3c(cnn3-c3ccccc3)c2=O)CC1)C12CC(C1)C2 [Compound I-289]	200 to 1000
O=C(N1CCC(O)(Cn2cnc3c(cnn3-c3ccccc3)c2=O)CC1)C12CC(C(F)(F)F)(C1)C2 [Compound I-290]	1000 to 10000
CC(O)(c1ccc(C(=O)N2CCC(O)(Cn3cnc4c(cnn4-c4ccccc4)c3=O)CC2)cc1)C(F)(F)F (stereo not shown) [Compound I-291]	1000 to 10000
CC(F)(F)c1ccc(C(=O)N2CCC(O)(Cn3cnc4c(cnn4-c4ccccc4)c3=O)CC2)cc1 [Compound I-294]	1000 to 10000
O=C(C1CC1)N1CCC(O)(Cn2cnc3c(cnn3-c3ccc(Oc4ccccc4)cc3)c2=O)CC1 [Compound I-296]	1000 to 10000
O=C(c1ccc(Cl)cc1)N1CCC(O)(Cn2cnc3c(cnn3-c3ccc(F)cc3)c2=O)CC1 [Compound I-302, 5-{[1-(4-chlorobenzoyl)-4-hydroxypiperidin-4-yl]methyl}-1-(4-fluorophenyl)-1H,4H,5H-pyrazolo[3,4-d]pyrimidin-4-one]	200 to 1000
O=C(c1cccc(Cl)c1)N1CCC(O)(Cn2cnc3c(cnn3-c3ccc(F)cc3)c2=O)CC1 [Compound I-303]	1000 to 10000
O=C(c1ccc(C2CC2)cc1)N1CCC(O)(Cn2cnc3c(cnn3-c3ccc(F)cc3)c2=O)CC1 [Compound I-304]	1000 to 10000
O=C(c1ccc(OC(F)F)cc1)N1CCC(O)(Cn2cnc3c(cnn3-c3ccc(F)cc3)c2=O)CC1 [Compound I-306]	1000 to 10000
O=C(c1ccc(F)c(F)c1)N1CCC(O)(Cn2cnc3c(cnn3-c3ccc(F)cc3)c2=O)CC1 [Compound I-309]	1000 to 10000
Cc1ncoc1C(=O)N1CCC(O)(Cn2cnc3c(cnn3-c3ccc(F)cc3)c2=O)CC1 [Compound I-312]	1000 to 10000
O=C(c1cnc(C2CC2)o1)N1CCC(O)(Cn2cnc3c(cnn3-c3ccc(F)cc3)c2=O)CC1 [Compound I-314]	200 to 1000
CN(C)c1ncc(C(=O)N2CCC(O)(Cn3cnc4c(cnn4-c4ccc(F)cc4)c3=O)CC2)o1 [Compound I-315]	1000 to 10000
O=C(c1ccc(Cl)cc1Cl)N1CCC(O)(Cn2cnc3c(cnn3-c3ccc(F)cc3)c2=O)CC1 [Compound I-317]	200 to 1000
O=C(C1CC1)N1CCC(O)(Cn2cnc3c(cnn3-c3ccc(-c4cccc(F)c4)cc3)c2=O)CC1 [Compound I-330]	1000 to 10000
O=C(c1ccc(-c2ccc(-n3ncc4c(=O)n(CC5(O)CCN(C(=O)C6CC6)CC5)cnc43)cc2)cc1)N1CCCC1 [Compound I-333]	1000 to 10000
O=C(C1CC1)N1CCC(O)(Cn2cnc3c(cnn3-c3cccc(-c4cccc(Cl)c4)c3)c2=O)CC1 [Compound I-347]	1000 to 10000
CN(C)C(=O)c1ccc(-c2cccc(-n3ncc4c(=O)n(CC5(O)CCN(C(=O)C6CC6)CC5)cnc43)c2)cc1 [Compound I-350]	1000 to 10000
N#Cc1cccc(-c2cccc(-n3ncc4c(=O)n(CC5(O)CCN(C(=O)C6CC6)CC5)cnc43)c2)c1 [Compound I-359]	1000 to 10000
CN(C)CCOc1ccc(-c2ccc(-n3ncc4c(=O)n(CC5(O)CCN(C(=O)C6CC6)CC5)cnc43)cc2)cc1 [Compound I-369]	1000 to 10000
O=C(C1CC1)N1CCC(O)(Cn2cnc3c(cnn3-c3cccc(-c4cccc(O)c4)c3)c2=O)CC1 [Compound I-385]	1000 to 10000

Structure (SMILES)	IC50 [nM]
O=C(C1CC1)N1CCC(O)(Cn2cnc3c(cnn3-c3cccc(-c4cncc(F)c4)c3)c2=O)CC1 [Compound I-387]	1000 to 10000
O=C(C1CC1)N1CCC(O)(Cn2cnc3c(cnn3-c3ccc(-c4cc(F)ccc4CO)cc3)c2=O)CC1 [Compound I-390]	1000 to 10000
O=C(C1CC1)N1CCC(O)(Cn2cnc3c(cnn3-c3ccc(-c4cccc(N5CCCC5)c4)cc3)c2=O)CC1 [Compound I-399]	1000 to 10000
O=C(C1CC1)N1CCC(O)(Cn2cnc3c(cnn3-c3cccc(-c4cc(F)ccc4CO)c3)c2=O)CC1 [Compound I-403]	1000 to 10000
O=C(C1CC1)N1CCC(O)(Cn2cnc3c(cnn3-c3cccc(-c4cccc5[nH]ccc45)c3)c2=O)CC1 [Compound I-406]	1000 to 10000
O=C(NCCO)c1cccc(-c2cccc(-n3ncc4c(=O)n(CC5(O)CCN(C(=O)C6CC6)CC5)cnc43)c2)c1 [Compound I-409]	1000 to 10000
CCN(Cc1ccc(-n2ncc3c(=O)n(CC4(O)CCN(C(=O)C5CC5)CC4)cnc32)cc1)C1CCCCC1 [Compound I-416]	1000 to 10000
O=C(c1ccc(N2CCOCC2)nc1)N1CCC(O)(Cn2cnc3c(cnn3-c3ccc(F)cc3)c2=O)CC1 [Compound I-419]	1000 to 10000
O=C(c1ccc(C(F)(F)F)nc1)N1CCC(O)(Cn2cnc3c(cnn3-c3ccc(F)cc3)c2=O)CC1 [Compound I-422]	> 10000
O=C(N1CCC(O)(Cn2cnc3c(cnn3-c3ccc(F)cc3)c2=O)CC1)C12CC(C(F)(F)F)(C1)C2 [Compound I-423]	1000 to 10000
CNC(=O)N1CCC(O)(Cn2cnc3c(cnn3-c3ccc(-c4ccccc4)cc3)c2=O)CC1 [Compound I-425]	1000 to 10000
O=C(C1CC1)N1CCC(O)(Cn2cnc3c(cnn3-c3ccc(CN4CCCCC4)cc3)c2=O)CC1 [Compound I-431]	1000 to 10000
COCCN(C)Cc1ccc(-n2ncc3c(=O)n(CC4(O)CCN(C(=O)C5CC5)CC4)cnc32)cc1 [Compound I-434]	1000 to 10000
O=C(C1CC1)N1CCC(O)(Cn2cnc3c(cnn3-c3ccc(CN4CCc5ccccc5C4)cc3)c2=O)CC1 [Compound I-437]	1000 to 10000
CCc1ccc(CN(C)Cc2ccc(-n3ncc4c(=O)n(CC5(O)CCN(C(=O)C6CC6)CC5)cnc43)cc2)cn1 [Compound I-440]	1000 to 10000
O=C(C1CC1)N1CCC(O)(Cn2cnc3c(cnn3-c3ccc(CN4CCC5(CCOCC5)C4)cc3)c2=O)CC1 [Compound I-443]	1000 to 10000
N#CC1CCN(Cc2cccc(-n3ncc4c(=O)n(CC5(O)CCN(C(=O)C6CC6)CC5)cnc43)c2)CC1 [Compound I-446]	1000 to 10000
COCCN(C)Cc1cccc(-n2ncc3c(=O)n(CC4(O)CCN(C(=O)C5CC5)CC4)cnc32)c1 [Compound I-449]	1000 to 10000
CC(C)CN(C)Cc1cccc(-n2ncc3c(=O)n(CC4(O)CCN(C(=O)C5CC5)CC4)cnc32)c1 [Compound I-452]	1000 to 10000
